Patent US8119589B2, “Modulation of CD4+ T cell responses by a tick saliva protein, Salp15 and polypeptides derived therefrom” (University of North Carolina at Charlotte, priority 2004, dated 2012)

What was measured:
[1] = tested on: R-EAE in SJL/J mice; experiment: Relapsing-EAE model in PLP139-151 immunized SJL mice; assay type: in vivo, mouse
Experimental: SJL/J mice in groups of 18 are injected i.p. with 200 μg of PLP peptide 139-151 (HSLGKWLGHPDKF; SEQ ID NO: 15) (Research Genetics, Huntsville, Ala., U.S.A.). Please note that the original Cysteine has been substituted by serine for stability purposes. […] One group of mice receives daily injections of 50 μg of recombinant Salp15 produced in a Drosophila expression system, starting day 10 after immunization. This regime permits an efficient in vivo activation of PLP139-151-specific CD4^+ T cell activation. Since Salp15 has no effect on effector CD4^+ T cells (Anguita et al., 2002.), its function is expected to be circumscribed to the activation of neoreactive CD4^+ T cells. […]
At days 12 (including the 3 control mice treated with Salp15 over the course of the immunization), 14, 17, 20, 30 and 60 post-infection, 3 mice from each group are sacrificed and analyzed as follows: splenic CD4^+ T cells are purified by negative selection using biotinylated antibodies against CD8a, Ly6G, Mac-I, B220, class II (I-A^k and I-E^k) and panNK molecules (BD Biosciences Pharmingen, San Jose, Calif., U.S.A.), followed by incubation with Avidin bound to magnetic microbeads and passage through a magnetic column (Miltenyi Biotec, Auburn, Calif., U.S.A.). […]
Peripheral responses to relapsing epitopes are assessed by the analysis of delayed type hypersensitivity (DTH). […]

[2] = tested on: CD4+ T cells; experiment: Actin polymerization (phalloidin488 staining, F-actin immunoblot, flow cytometry) in activated CD4+ T cells; assay type: cell-based, mouse; details: Salp15 pretreatment; effect seen as early as 1 minute of activation
Experimental: For the visualization of lipid rafts, phospho-tyrosine, and cytoskeleton reorganization, CD4^+, CD8^+ or Jurkat cells were cytospun for 10 minutes at 1000 RPM onto positively charged microslides (Fisher Scientific, Hampton, N.H., U.S.A.). The cells were fixed with 3.7% paraformaldehyde (Sigma Chemical Co.) for 15 minutes and stained with CTB594 (Molecular Probes, Eugene, Oreg., U.S.A.), AlexaFluor488 labeled phalloidin (Molecular Probes) or (1:50) biotin-conjugated anti-p-Tyr (PY99) followed by Streptavidin-AlexaFluor594 (1:100, Molecular Probes). […]
Actin polymerization assay was performed as described earlier (Krishnan et al., 2004). […] The cells were washed, resuspended in PBS and analyzed for F-actin content on a FACSCalibur with CellQuest software (Beckton Dickinson, Mountain View, Calif., U.S.A.). […] The cells were washed twice with PBS and analyzed by flow cytometry.
The amount of F-actin in activated CD4+ T cells in the presence and absence of Salp15 was quantified by ultracentrifugation and Western blotting. […] Equal amounts of total protein were loaded on the SDS-gel based on the total actin determined from a sample of the cell lysate.

## Salp15: secreted salivary protein from Ixodes scapularis, SEQ ID NO: 2; recombinant His-tagged, produced in Drosophila S2 cells
[1]; daily 50 μg Salp15 from day 10 after immunization
  Activation of CD4+ T cells in response to new epitopes (epitope spreading): lowered activation
[1]; histology of brains and spinal cords
  Degree of demyelination: lower degree of demyelination
[2]
  Phalloidin488 staining / amount of F-actin: reduced
